Inconclusive results and toxic doses are left out. How the source made its calls: active means survival T/C of 150% or more; inactive means T/C below 125% in these data. Peptide text beside a SMILES is read from it.
Tested on: P388 leukemia ip, CD2F1 mice, survival T/C
Test: NCI In Vivo Anticancer Drug Screen. Data for tumor model P388 Leukemia (intraperitoneal) in CD2F1 (CDF1) mice
Settings: endpoint: median survival time, higher = longer survival
In short: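 Mice carrying the transplanted tumor received test compound or vehicle. Survival was recorded in each group, and the value is the treated-group measurement divided by that of the vehicle-treated control group.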

[1] = dose: 50.0 mg/kg/injection, schedule: Q01DX009 (ip), vehicle: saline
[2] = dose: 100.0 mg/kg/injection, schedule: Q01DX009 (ip), vehicle: saline
[3] = dose: 50.0 mg/kg/injection, schedule: Q01DX009 (ip), vehicle: saline with Tween-80
[4] = dose: 100.0 mg/kg/injection, schedule: Q01DX009 (ip), vehicle: saline with Tween-80
[5] = dose: 200.0 mg/kg/injection, schedule: Q01DX009 (ip), vehicle: saline with Tween-80
[6] = dose: 50.0 mg/kg/injection, schedule: Q01DX009 (ip), vehicle: Klucel (hydroxypropylcellulose) (HPC)
[7] = dose: 100.0 mg/kg/injection, schedule: Q04DX003 (ip), vehicle: saline with Tween-80
[8] = dose: 200.0 mg/kg/injection, schedule: Q04DX003 (ip), vehicle: saline with Tween-80
[9] = dose: 60.0 mg/kg/injection, schedule: Q01DX005 (ip), vehicle: saline with Tween-80
[10] = dose: 120.0 mg/kg/injection, schedule: Q01DX005 (ip), vehicle: saline with Tween-80
[11] = dose: 240.0 mg/kg/injection, schedule: Q01DX005 (ip), vehicle: saline with Tween-80
[12] = dose: 50.0 mg/kg/injection, schedule: Q01DX005 (ip), vehicle: saline with Tween-80
[13] = dose: 100.0 mg/kg/injection, schedule: Q01DX005 (ip), vehicle: saline with Tween-80
[14] = dose: 200.0 mg/kg/injection, schedule: Q01DX005 (ip), vehicle: saline with Tween-80

Measured: T/C

c1n[nH]c2c1CCCC2
inactive: dose: 12.5 mg/kg/injection, schedule: Q01DX009 (ip), vehicle: saline 96 % of control | dose: 25.0 mg/kg/injection, schedule: Q01DX009 (ip), vehicle: saline 105 % of control | [1] 91 % of control | [2] 104 % of control

O=C1NCCc2ccc(cc2)OC2CCNC2C(=O)N2CCCC12 (stereo unspecified)
inactive: dose: 12.5 mg/kg/injection, schedule: Q01DX005 (ip), vehicle: Klucel (hydroxypropylcellulose) (HPC) 96 % of control | dose: 25.0 mg/kg/injection, schedule: Q01DX005 (ip), vehicle: Klucel (hydroxypropylcellulose) (HPC) 107 % of control | dose: 50.0 mg/kg/injection, schedule: Q01DX005 (ip), vehicle: Klucel (hydroxypropylcellulose) (HPC) 100 % of control

O=[n+]1c2c(n([O-])c3cc(Cl)c(Cl)cc31)CCCCC2
inactive: [3] 91 % of control | [4] 99 % of control | [5] 99 % of control

CN(C)C(=S)S(=O)(=O)c1ccccc1
inactive: dose: 12.5 mg/kg/injection, schedule: Q01DX009 (ip), vehicle: Klucel (hydroxypropylcellulose) (HPC) 123 % of control | dose: 25.0 mg/kg/injection, schedule: Q01DX009 (ip), vehicle: Klucel (hydroxypropylcellulose) (HPC) 123 % of control | [6] 123 % of control

O=S(=O)(Nc1ccccn1)c1ccc(N(CCCl)CCCl)cc1
inactive: [7] 95 % of control | [8] 95 % of control

Cc1cc(C)n2c(-c3ccccc3)c(C)c(C#N)c2n1
inactive: [9] 106 % of control | [10] 100 % of control | [11] 91 % of control

CN(O)C1=c2ccccc2=NC1=O
inactive: [3] 91 % of control | [4] 92 % of control | [5] 114 % of control

O=S(=O)(O)Sc1ncnc2nc[nH]c12
inactive: [1] 108 % of control | dose: 75.0 mg/kg/injection, schedule: Q04DX003 (ip), vehicle: saline 100 % of control | [2] 122 % of control | dose: 150.0 mg/kg/injection, schedule: Q04DX003 (ip), vehicle: saline 98 % of control | dose: 200.0 mg/kg/injection, schedule: Q01DX009 (ip), vehicle: saline 108 % of control | dose: 300.0 mg/kg/injection, schedule: Q04DX003 (ip), vehicle: saline 108 % of control

COc1ccc2cc3c[n+](C)ccc3cc2c1OC
inactive: dose: 12.5 mg/kg/injection, schedule: Q01DX009 (ip), vehicle: water 118 % of control | dose: 25.0 mg/kg/injection, schedule: Q01DX009 (ip), vehicle: water 112 % of control

CC(C)=CC(C(=O)C1CC1)C(CC(=O)C1CC1)C(C)C (stereo unspecified)
inactive: dose: 25.0 mg/kg/injection, schedule: Q01DX005 (ip), vehicle: saline with Tween-80 99 % of control | [12] 92 % of control | [13] 92 % of control

Cc1ccc(S(=O)(=O)C23N=NC(C)(C)C2C2CCC3C2)cc1 (stereo unspecified)
inactive: dose: 60.0 mg/kg/injection, schedule: Q01DX005 (ip), vehicle: Klucel (hydroxypropylcellulose) (HPC) 102 % of control | dose: 120.0 mg/kg/injection, schedule: Q01DX005 (ip), vehicle: Klucel (hydroxypropylcellulose) (HPC) 104 % of control | dose: 240.0 mg/kg/injection, schedule: Q01DX005 (ip), vehicle: Klucel (hydroxypropylcellulose) (HPC) 102 % of control

CC(C)CC(NC(=O)C(CC(=O)O)NC(=O)C(N)CO)C(=O)N1CCCC1C(=O)NC(CCC(N)=O)C(=O)NC(C(=O)O)C(C)O (stereo unspecified) (H-SDLPQT-OH; configuration not given here)
inactive: dose: 9.0 mg/kg/injection, schedule: Q01DX005 (ip), vehicle: water 110 % of control | dose: 18.0 mg/kg/injection, schedule: Q01DX005 (ip), vehicle: water 107 % of control | dose: 36.0 mg/kg/injection, schedule: Q01DX005 (ip), vehicle: water 107 % of control | dose: 72.0 mg/kg/injection, schedule: Q01DX005 (ip), vehicle: water 107 % of control | dose: 144.0 mg/kg/injection, schedule: Q01DX005 (ip), vehicle: water 100 % of control

Clc1cccc(N=Cc2ccc(C=Nc3cccc(Cl)c3Cl)cc2)c1Cl
inactive: [6] 94 % of control | dose: 100.0 mg/kg/injection, schedule: Q01DX009 (ip), vehicle: Klucel (hydroxypropylcellulose) (HPC) 91 % of control | dose: 200.0 mg/kg/injection, schedule: Q01DX009 (ip), vehicle: Klucel (hydroxypropylcellulose) (HPC) 90 % of control

C/C=C(\C)C(=O)Nc1c(C)cccc1Cl
inactive: dose: 100.0 mg/kg/injection, schedule: Q04DX002 (ip), vehicle: Klucel (hydroxypropylcellulose) (HPC) 106 % of control | dose: 200.0 mg/kg/injection, schedule: Q04DX002 (ip), vehicle: Klucel (hydroxypropylcellulose) (HPC) 104 % of control

COc1cc2c(cc1OC)C1CC(CC(N)=O)(C(N)=O)CCN1CC2 (stereo unspecified)
inactive: [12] 97 % of control | [13] 94 % of control | [14] 90 % of control

Cc1onc(-c2ccccc2)c1C(=O)OCCOc1ccc(C(F)(F)F)cc1[N+](=O)[O-]
inactive: [9] 99 % of control | [10] 90 % of control | [11] 90 % of control

CC1=NCCN=C(C)C1N=Nc1ccccc1
inactive: [7] 90 % of control | [8] 90 % of control

O=C1C2C3C=CC(O3)C2C(=O)N1/N=C/c1ccc2c(c1)OCO2 (stereo unspecified)
inactive: [12] 97 % of control | [13] 102 % of control | [14] 93 % of control

c1cn(C23CC4CC(CC(C4)C2)C3)cn1
inactive: dose: 25.0 mg/kg/injection, schedule: Q01DX001 (ip), vehicle: Klucel (hydroxypropylcellulose) (HPC) 97 % of control

O=C(CNC(=O)c1ccc(Cl)cc1Cl)N/N=C/c1cccc([N+](=O)[O-])c1
inactive: dose: 3.13 mg/kg/injection, schedule: Q01DX009 (ip), vehicle: saline with Tween-80 91 % of control | dose: 6.25 mg/kg/injection, schedule: Q01DX009 (ip), vehicle: saline with Tween-80 92 % of control | dose: 12.5 mg/kg/injection, schedule: Q01DX009 (ip), vehicle: saline with Tween-80 106 % of control

CC(=O)OC1=C2OC(=O)C3(C2C=CC=C1)C1C=CC=CC13 (stereo unspecified)
inactive: [3] 97 % of control | [4] 97 % of control | [5] 111 % of control

Cc1cc(Cl)ccc1NC(=O)/C(Cl)=C1/Sc2ccccc2NC1=O
inactive: dose: 100.0 mg/kg/injection, schedule: Q01DX001 (ip), vehicle: saline with Tween-80 105 % of control | dose: 200.0 mg/kg/injection, schedule: Q01DX001 (ip), vehicle: saline with Tween-80 97 % of control | dose: 400.0 mg/kg/injection, schedule: Q01DX001 (ip), vehicle: saline with Tween-80 97 % of control

O=C1c2ccccc2-c2nc3cncnc3nc21 (tested in a mixture with another compound)
inactive: dose: 50.0 mg/kg/injection, schedule: Q04DX003 (ip), vehicle: saline 109 % of control | dose: 100.0 mg/kg/injection, schedule: Q04DX003 (ip), vehicle: saline 109 % of control | dose: 200.0 mg/kg/injection, schedule: Q04DX003 (ip), vehicle: saline 104 % of control

CCCC(=O)N(CCC(N)=O)c1ncc([N+](=O)[O-])s1
inactive: dose: 25.0 mg/kg/injection, schedule: Q01DX001 (ip), vehicle: saline 94 % of control | dose: 50.0 mg/kg/injection, schedule: Q01DX001 (ip), vehicle: saline 100 % of control | dose: 100.0 mg/kg/injection, schedule: Q01DX001 (ip), vehicle: saline 100 % of control

CC(=O)OCC12C(=O)CC(C)C3(CC(c4ccoc4)OC3=O)C1CCC(=O)C2(O)CCl (stereo unspecified)
inactive: dose: 0.75 mg/kg/injection, schedule: Q01DX005 (ip), vehicle: saline + alcohol 96 % of control | dose: 1.5 mg/kg/injection, schedule: Q01DX005 (ip), vehicle: saline + alcohol 106 % of control | dose: 3.0 mg/kg/injection, schedule: Q01DX005 (ip), vehicle: saline + alcohol 103 % of control | dose: 6.0 mg/kg/injection, schedule: Q01DX005 (ip), vehicle: saline + alcohol 108 % of control | dose: 12.0 mg/kg/injection, schedule: Q01DX005 (ip), vehicle: saline + alcohol 106 % of control | dose: 12.5 mg/kg/injection, schedule: Q01DX005 (ip), vehicle: saline + Tween-80 + alcohol 90 % of control | dose: 25.0 mg/kg/injection, schedule: Q01DX005 (ip), vehicle: saline + Tween-80 + alcohol 90 % of control | dose: 50.0 mg/kg/injection, schedule: Q01DX005 (ip), vehicle: saline + Tween-80 + alcohol 93 % of control | dose: 150.0 mg/kg/injection, schedule: Q01DX005 (ip), vehicle: saline + Tween-80 + alcohol 100 % of control

— PubChem BioAssay AID330 (DTP/NCI, 2004)
